TGI, GI50 and outcome data for 20 molecules are collected here from PubChem BioAssay (NCI).

Holding throughout (test): NCI-60 cell line screen, 48 h
The subject of experiment [1] is SNB-78 CNS.
The subject of experiment [2] is DLD-1 colon.
Experiment [3] has as its system DMS 273 small cell lung.
The test system of experiment [4] is M19-MEL melanoma.
Experiment [5] deals with LXFL 529 NSCLC.
In experiment [6] the test system is DU-145 prostate.
Experiment [7] relates to BT-549 breast.
Experiment [8] deals with MDA-MB-435.
Experiment [9] deals with PC-3 prostate.

Molecules are shown by their SMILES. ≈ marks a conversion by molar mass, not a printed value. Where “and” joins values, the source holds several entries; their conditions need not be identical. Equal entries are not always repeated.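 Method: 48-hour compound exposure of cells in 96-well plates, five concentrations, linear interpolation of endpoints. Abbreviation: GI50, concentration required for 50% inhibition of growth. TGI denotes the concentration required for complete inhibition of growth.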 Calls of active or inactive are those of the source. No stated cut-off is given here; in the data, active means GI50 below about 0.43 µM; inactive means the rest. Bounds are passed on as bounds.

Regarding `[N-]=[N+]=NC(c1cn(C2CC(O)C(CO)O2)c(=O)[nH]c1=O)C(Br)I` (stereo not given), the TGI in [1], in experiment [2], in [3], in experiment [4] and in experiment [5] was greater than 100 µM in each case.
On to `O=C(/C=C/c1ccc(OCC(=O)N2CCN(c3ccccc3)CC2)cc1)c1ccc(Cl)cc1`, for which the TGI in experiment [1] was 82.8 µM; in experiment [6], greater than 100 µM; in experiment [2], greater than 100 µM; in [7], greater than 85.6 µM; in experiment [8], greater than 100 µM; in [9], greater than 100 µM. Besides, the TGI in experiment [3], in experiment [4] and in experiment [5] was greater than 100 µM throughout.
On to `O=C1C=C[C@@]23CC1C(O)C[C@H]2C=Cc1ccccc13` (stereo not given in full), for which the TGI in [2], in experiment [4] and in [5] was greater than 100 µM in each case.
Turning to `Cc1cccc(C(C)(C)C)c1NC(=O)C(=O)C(C(=O)/C=C\c1ccccc1)C1OC(=O)c2ccccc21` (stereo not given), the TGI in experiment [1], in experiment [2], in [4] and in [5] was greater than 100 µM throughout.
On to `O=C(O)CNc1c2ccccc2nc2ccccc12`, for which the TGI in [2], in experiment [3] and in [5] was greater than 100 µM in each case.
Take `COc1c(O)c2c(c3cc(C(=O)N4CCc5c4c(O)c(OC)c4[nH]c(C(=O)N6CC7CC78C6=CC(=O)c6[nH]cc(C)c68)cc54)[nH]c13)CCN2C(N)=O` (stereo not given): the GI50 in experiment [1] was 0.0117 µg/mL (≈ 0.0166 µM); in [2] it was 3.41 ng/mL (≈ 0.00485 µM); in experiment [3], 1.98 ng/mL (≈ 0.00282 µM); in experiment [4], 0.0165 µg/mL (≈ 0.0235 µM). In addition, the TGI in experiment [1] was 0.0534 µg/mL; in experiment [6], greater than 100 µM; in [7] it was 5.01 µM; in experiment [8], 0.783 µM; in [9], 10 µM; in [3] it was 7.18 nM and 0.0106 µg/mL. Moreover, the TGI was 14.8 nM and 0.041 µg/mL in [4]; 0.0329 µM in experiment [5]. Further, the outcome in experiment [5] was inactive.
As for `CCCCCCCCCCC/C(=N/O)c1ccc(O)c2ncccc12`, the TGI in experiment [1] was greater than 100 µM; in experiment [2], 8.91 µM; in [3] it was 4.79 µM; in experiment [4] it was 4.97 µM; in experiment [5], 7.57 µM.
`Cc1ccc(NC(=O)CC2C(=O)Nc3ccccc3S2=O)cc1C` (stereo not given): the TGI in experiment [1], in experiment [2], in experiment [3], in experiment [4] and in experiment [5] was greater than 100 µM in each case.
`O=c1n(C2CCCCC2)c(=C(Cl)Cl)c(=C(Cl)Cl)n1C1CCCCC1`: the TGI in experiment [1], in experiment [2], in experiment [3] and in experiment [4] was greater than 100 µM in each case.
With `CCN1C2=NC(=O)N(C)C(=O)C2(Cl)C(C(SC)S(=O)(=O)c2ccc(C)cc2)c2ccccc21` (stereo not given), the TGI was 58.3 µM in [1]; greater than 100 µM in [2]; greater than 100 µM in [3]; 61.5 µM in experiment [4]; 59.3 µM in experiment [5].
On to `CN(C)CCCn1c2c(c3cnccc3c1=O)C(=O)c1ccccc1-2`, for which the GI50 in [6] is 0.49 µM; in experiment [7], 1.2 µM; in experiment [8], 0.49 µM; in experiment [9], 0.485 µM. The TGI in experiment [6] amounted to 3.43 µM; in experiment [7], 8.43 µM; in experiment [8], 2.48 µM; in experiment [9], 3.93 µM.
In the case of `CCCC1c2c(ccc3ccccc23)Oc2ccc3ccccc3c21`, the TGI in [6], in [7], in experiment [8] and in experiment [9] was greater than 100 µM throughout.
`CCOC(=O)CC(=O)Sc1ccccc1`: the TGI in experiment [2] worked out at 53.6 µM; in experiment [3], 46 µM; in [4], 48.4 µM.
Regarding `CCCC[C@H]1C(=O)O[C@H](C)[C@H](NC(=O)c2cccc(NC=O)c2O)C(=O)O[C@@H](C)[C@@H]1OC(=O)CC(C)C`, the TGI in experiment [6] turned out to be 40.7 µM; in experiment [7], 36 µM; in experiment [8] it was 44.6 µM; in [9], 32.9 µM.
In the case of `Cc1ccccc1-c1c(N)nc(NC#N)nc1C(=O)Nc1ccccc1`, the TGI in experiment [1], in [2], in experiment [3], in experiment [4] and in experiment [5] was greater than 100 µM each time.
With `COC(=O)C1=C(C)N(NC(N)=O)C2(N)N(NC(N)=O)C(C)=C(C(=O)OC)C12C(=O)OC` (stereo not given), the TGI in experiment [1], in [2], in [3], in experiment [4] and in [5] was greater than 100 µM in each case.
Consider `COc1ccc(/C=N/N=C(\N)NO)cc1OC`, for which the TGI in [1], in [2], in experiment [3], in [4] and in experiment [5] was greater than 100 µM throughout.
Take `OCCCCC#Cc1ccccc1C#Cc1ccccc1`: the GI50 in experiment [6] is 5.22 µM; in experiment [7], 11.6 µM; in experiment [8], 13.7 µM; in experiment [9], 14.1 µM. Moreover, the TGI in experiment [6] was 20.2 µM; in [7], 25.9 µM; in experiment [8] it was 27.2 µM; in [9] it was 27.1 µM.
As for `Cc1ccc2c(c1)nc(C(=O)c1ccco1)c(C(F)(F)F)[n+]2[O-]`, the GI50 in experiment [6] is greater than 100 µM; in experiment [7], 78.5 µM; in [8], greater than 100 µM; in experiment [9], 50.2 µM. Also, the TGI in experiment [6], in [7], in [8] and in experiment [9] was greater than 100 µM in each case.
For the molecule `CCCCCCCCCCCCCCCCCC(=O)OCC(CN(C)CCN(C)C)OC(=O)CCCCCCCCCCCCCCCCC` (stereo not given), the TGI in experiment [1], in experiment [2], in experiment [3] and in [5] was greater than 100 µM throughout.
